This passage reports IC50, inhibition and Activity results from ChEMBL document CHEMBL3421624, “Design and Synthesis of Antitumor Heck-Coupled Sclareol Analogues: Modulation of BH3 Family Members by SS-12 in Autophagy and Apoptotic Cell Death” (J Med Chem, 2015).

A short description of assay [1]: Cytotoxicity against human PC3 cells after 48 hrs by MTT assay. In kind it is functional, cell-based. As to conditions: PC-3, 48 h.
Assay [2] has as its system A549. Put plainly: Cytotoxicity against human A549 cells after 48 hrs by MTT assay. In kind it is functional, cell-based. As to conditions: A549, 48 h.
In assay [3] the test system is HeLa. Briefly: Cytotoxicity against human HeLa cells after 48 hrs by MTT assay. In kind it is functional, cell-based.
In assay [4] the test system is PC-3. Put plainly: Inhibition of Akt S473 phosphorylation in human PC3 cells at 0.1 to 0.3 uM after 24 hrs by Western blotting method. In kind it is cell-based.
Assay [5] relates to PC-3. Put plainly: Inhibition of Akt in human PC3 cells assessed as reduction in mTOR S2448 phosphorylation at 0.1 to 0.3 uM after 24 hrs by Western blotting method. In kind it is cell-based.
In assay [6] the test system is PC-3. Briefly: Induction of autophagy in human PC3 cells at 100 to 300 nM after 24 hrs by acridine orange staining based fluorescence microscopy. In kind it is functional.
Assay [7] relates to PC-3. Put plainly: Effect on MAP1LC3 I/II protein expression in human PC3 cells at 0.2 to 0.3 uM after 24 hrs by immunoblotting method. In kind it is functional, cell-based.
The test system of assay [8] is PC-3. Briefly: Effect on SQSTM1/P62 protein expression in human PC3 cells at 0.2 to 0.3 uM after 24 hrs by immunoblotting method. In kind it is functional, cell-based.
In assay [9] the test system is PC-3. Briefly: Effect on Beclin-1 protein expression in human PC3 cells at 0.2 to 0.3 uM after 24 hrs by immunoblotting method. In kind it is functional, cell-based.
Assay [10] concerns PC-3. Put plainly: Induction of apoptosis in human PC3 cells at 100 to 300 nM after 24 hrs. In kind it is functional, cell-based.
For assay [11], the system named is PC-3. Briefly: Induction of autophagy in human PC3 cells at 100 to 300 nM after 24 hrs. In kind it is functional, cell-based.
The test system of assay [12] is PC-3. Briefly: Induction of apoptosis in human PC3 cells assessed as caspase-3 cleavage at 300 nM after 24 hrs by Western blotting method. In kind it is functional, cell-based.
Assay [13] relates to PC-3. Put plainly: Induction of autophagy in human PC3 cells at 100 to 300 nM after 24 hrs by MDC staining based fluorescence microscopy. In kind it is functional, cell-based.
Assay [14] has as its system PC-3. Briefly: Induction of autophagy in human PC3 cells assessed as increase in punctate EGFP-LC3 pattern in autophagosomes at 300 nM after 24 hrs by fluorescence microscopy. In kind it is functional, cell-based.
For assay [15], the system named is PC-3. Briefly: Induction of autophagy in human PC3 cells assessed as increase in punctate EGFP-LC3 pattern in autophagosomes at 100 nM after 24 hrs by fluorescence microscopy. In kind it is functional, cell-based.
For assay [16], the system named is PC-3. Briefly: Induction of autophagy in human PC3 cells assessed as increase LC3 intracellular localization at 100 nM after 24 hrs by immunocytochemistry. In kind it is functional, cell-based.

Active and inactive are the calls of the source. The calls are words filed in the database; no cut-off is given here.

`CN[C@@H]1C[C@H]2O[C@@](C)([C@@H]1OC)n1c3ccccc3c3c4c(c5c6ccccc6n2c5c31)C(=O)NC4` [STAUROSPORINE]: it took 0.031 µM to reach half-maximal inhibition in [1] (IC50).

Regarding `CC1(C)CCC[C@]2(C)[C@@H](CC[C@@](C)(O)/C=C/c3ccc(Br)cc3)[C@](C)(O)CC[C@@H]12`, the IC50 in assay [1] stood at 41.3 µM; in assay [2] it was 43.2 µM; in assay [3], 45.9 µM.

`CC(C)(C)c1ccc(/C=C/[C@](C)(O)CC[C@@H]2[C@@]3(C)CCCC(C)(C)[C@@H]3CC[C@@]2(C)O)cc1`: the IC50 was found to be 3.8 µM in assay [1], 45 µM in assay [2] and 48.5 µM in assay [3].

`C=C[C@](C)(O)CC[C@@H]1[C@@]2(C)CCCC(C)(C)[C@@H]2CC[C@@]1(C)O` [SCLAREOL]: the inhibition result in assay [4] and in assay [5] was “Active” throughout. For the same compound, the IC50 in assay [1] was 0.105 µM; in assay [2], 3.21 µM; in [3] it was 3.35 µM. The Activity result in [6] is on record as “<=5%”. For the same compound, the outcome in [7], in assay [8], in assay [9], in [10] and in assay [11] was inactive. Moreover, the outcome in assay [12] was Active.

On to `CC1(C)CCC[C@]2(C)[C@@H](CC[C@@](C)(O)/C=C/c3ccc(Cl)nc3)[C@](C)(O)CC[C@@H]12`, for which the IC50 in assay [1] amounted to 0.275 µM; in assay [2] it was 3.28 µM; in assay [3], 3.68 µM.

On to `CC1(C)CCC[C@]2(C)[C@@H](CC[C@@](C)(O)/C=C/c3ccc(C(=O)O)cc3)[C@](C)(O)CC[C@@H]12`, for which the IC50 is 0.102 µM in assay [1], 44.3 µM in [2] and 45.4 µM in [3]. For the same compound, the outcome in assay [13] and in assay [6] was Active.

Turning to `Cc1cccc(/C=C/[C@](C)(O)CC[C@@H]2[C@@]3(C)CCCC(C)(C)[C@@H]3CC[C@@]2(C)O)c1C`, the IC50 in assay [1] amounted to 3.5 µM; in assay [2] it was 3.8 µM; in assay [3], 3.7 µM.

Regarding `CO/C1=C\C(C)=C\[C@@H](C)[C@@H](O)[C@@H](C)C/C(C)=C/C=C/[C@H](OC)[C@@H]([C@@H](C)[C@@H](O)[C@H](C)[C@@]2(O)C[C@@H](O)[C@H](C)[C@@H](C(C)C)O2)OC1=O`, in [14], the outcome was inactive.

As for `CO[C@H]1C[C@@H]2CC[C@@H](C)[C@@](O)(O2)C(=O)C(=O)N2CCCC[C@H]2C(=O)O[C@H]([C@H](C)C[C@@H]2CC[C@@H](O)[C@H](OC)C2)CC(=O)[C@H](C)/C=C(\C)[C@@H](O)[C@@H](OC)C(=O)[C@H](C)C[C@H](C)/C=C/C=C/C=C/1C`, the result in assay [15] and in assay [16] was inactive.

Turning to `COc1cccc(OC)c1/C=C/[C@](C)(O)CC[C@@H]1[C@@]2(C)CCCC(C)(C)[C@@H]2CC[C@@]1(C)O`, the IC50 in assay [1] worked out at 4 µM; in assay [2] it was 42 µM; in [3], 48.2 µM.

As for `CC1(C)CCC[C@]2(C)[C@@H](CC[C@@](C)(O)/C=C/c3c4ccccc4c(Br)c4ccccc34)[C@](C)(O)CC[C@@H]12`, the IC50 in assay [1] was found to be 0.301 µM; in assay [2], 44.9 µM; in assay [3] it was 46 µM.

In the case of `Cc1ccc(C)c(/C=C/[C@](C)(O)CC[C@@H]2[C@@]3(C)CCCC(C)(C)[C@@H]3CC[C@@]2(C)O)c1`, the IC50 in assay [1] was 0.176 µM; in assay [2], 3.32 µM; in [3], 3.38 µM. Moreover, the outcome in assay [13] and in assay [6] was Active.

For the compound `Cc1cccc(C)c1/C=C/[C@](C)(O)CC[C@@H]1[C@@]2(C)CCCC(C)(C)[C@@H]2CC[C@@]1(C)O`, the half-inhibitory concentration (IC50) in assay [1] was found to be 0.278 µM; in assay [2] it was 3.34 µM; in [3], 3.46 µM.

For the compound `CC1(C)CCC[C@]2(C)[C@@H](CC[C@@](C)(O)/C=C/c3ccccc3)[C@](C)(O)CC[C@@H]12`, the IC50 worked out at 0.121 µM in [1], 3.15 µM in assay [2] and 3.32 µM in [3]. Also, the result in assay [13] and in assay [6] was Active.

In the case of `CC1(C)CCC[C@]2(C)[C@@H](CC[C@@](C)(O)/C=C/c3cccc([N+](=O)[O-])c3)[C@](C)(O)CC[C@@H]12`, the IC50 in [1] was 0.153 µM; in [2], 3.4 µM; in assay [3], 3.38 µM. The result in assay [13] and in assay [6] was Active.

Turning to `CC1(C)CCC[C@]2(C)[C@@H](CC[C@@](C)(O)/C=C/c3ccc(Oc4ccccc4)cc3)[C@](C)(O)CC[C@@H]12`, the 50% inhibitory concentration (IC50) in assay [1] amounted to 0.268 µM; in [2] it was 3.2 µM; in [3], 3.48 µM.

In the case of `CC1(C)CCC[C@]2(C)[C@@H](CC[C@@](C)(O)/C=C/c3cncc4ccccc34)[C@](C)(O)CC[C@@H]12`, the figures for the concentration for half-maximal inhibition (IC50) in assay [1], in assay [2] and in assay [3] were 3.9 µM, 45.7 µM and 46 µM, respectively.

In the case of `COc1cccc(/C=C/[C@](C)(O)CC[C@@H]2[C@@]3(C)CCCC(C)(C)[C@@H]3CC[C@@]2(C)O)c1OC`, the values for the IC50 in [1], in assay [2] and in [3] were 2.9 µM, 3.28 µM and 3.88 µM, respectively.
